From US12577238B2, “Compositions and methods for modulating inflammatory and degenerative disorder” (University of Southern California, priority 2018, dated 2026)
Entries after “also recorded” stand apart in the source; their conditions may differ.

Tests used:
[1] = Oral single dose, synovial inflammation in rat joints; format: in vivo; conditions: oral administration of a single dose
OSMR and gp130 = biological target: T1, OSMR and gp130 (Homo sapiens, UniProt P40189); test: Receptor competition, gp130-Flag pull-down, OSMR; format: cell-based; conditions: in the presence of OSM; IP-FLAG, WB-OSMR
T1 construct: FLAG; expressed in transfected cells; host or cells: adult human chondrocytes
T1 sequence (P40189 23-918): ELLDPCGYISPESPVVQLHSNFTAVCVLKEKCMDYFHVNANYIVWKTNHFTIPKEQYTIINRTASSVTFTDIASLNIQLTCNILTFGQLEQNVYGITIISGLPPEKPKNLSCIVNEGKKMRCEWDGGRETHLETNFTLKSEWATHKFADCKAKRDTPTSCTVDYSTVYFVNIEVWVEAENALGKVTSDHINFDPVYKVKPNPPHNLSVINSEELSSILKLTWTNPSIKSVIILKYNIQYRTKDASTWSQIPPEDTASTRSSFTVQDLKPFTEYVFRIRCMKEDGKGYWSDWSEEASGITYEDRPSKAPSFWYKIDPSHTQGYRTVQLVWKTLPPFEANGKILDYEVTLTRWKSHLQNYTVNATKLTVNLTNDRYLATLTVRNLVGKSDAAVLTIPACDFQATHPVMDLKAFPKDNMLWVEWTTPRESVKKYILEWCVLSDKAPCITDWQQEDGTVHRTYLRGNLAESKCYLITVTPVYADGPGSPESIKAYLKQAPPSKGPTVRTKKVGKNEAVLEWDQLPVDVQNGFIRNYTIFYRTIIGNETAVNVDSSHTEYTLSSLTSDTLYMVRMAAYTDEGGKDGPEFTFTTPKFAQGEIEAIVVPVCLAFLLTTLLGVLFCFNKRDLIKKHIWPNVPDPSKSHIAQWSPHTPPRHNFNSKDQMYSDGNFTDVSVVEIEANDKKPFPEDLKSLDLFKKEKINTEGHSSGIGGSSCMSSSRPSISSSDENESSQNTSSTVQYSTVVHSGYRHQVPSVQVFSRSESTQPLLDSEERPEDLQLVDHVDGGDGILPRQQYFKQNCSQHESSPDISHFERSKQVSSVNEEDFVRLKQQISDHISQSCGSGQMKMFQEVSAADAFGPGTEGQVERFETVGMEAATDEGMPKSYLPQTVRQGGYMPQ
Description: Adult human chondrocytes transfected with gp130-Flag were incubated with various concentrations of RCGD 423 in the presence of IL-6 or OSM; levels of immoprecipitated IL-6R or OSMR were used to calculate the dissociation constant (Kd).
Adult human chondrocytes; IP-FLAG AB (transfected with gp130 FLAG plasmid), WB-OSMR.
This property would be of great interest due to the pro-inflammatory and pro-catabolic effects of these cytokines in the joint space. […] To assess whether RCGD 423 could directly compete for gp130 occupancy, human adult articular chondrocytes were transfected with tagged gp130 and then pulled down associated proteins±RCGD 423 and/or IL-6.

[2] = Medial meniscal tear surgery, intra-articular injection; format: in vivo; conditions: following medial meniscal tear surgery
adult synovial cells = test: OSM-mediated cytokine secretion by adult synovial cells; format: cell-based; conditions: 10 μM
Description: Adult synovial cells from three independent donors were used. Molecule 805 was used at 10 μM.

gp130 [3] = biological target: T2, gp130 (Rattus norvegicus, UniProt P40190); test: CFA-induced systemic inflammatory response in rats, intraarticular drug; format: in vivo
T2 construct: from tissue; host or cells: rat knee joint in vivo (Sprague-Dawley wild-type in the CFA model)
T2 sequence (P40190 23-918): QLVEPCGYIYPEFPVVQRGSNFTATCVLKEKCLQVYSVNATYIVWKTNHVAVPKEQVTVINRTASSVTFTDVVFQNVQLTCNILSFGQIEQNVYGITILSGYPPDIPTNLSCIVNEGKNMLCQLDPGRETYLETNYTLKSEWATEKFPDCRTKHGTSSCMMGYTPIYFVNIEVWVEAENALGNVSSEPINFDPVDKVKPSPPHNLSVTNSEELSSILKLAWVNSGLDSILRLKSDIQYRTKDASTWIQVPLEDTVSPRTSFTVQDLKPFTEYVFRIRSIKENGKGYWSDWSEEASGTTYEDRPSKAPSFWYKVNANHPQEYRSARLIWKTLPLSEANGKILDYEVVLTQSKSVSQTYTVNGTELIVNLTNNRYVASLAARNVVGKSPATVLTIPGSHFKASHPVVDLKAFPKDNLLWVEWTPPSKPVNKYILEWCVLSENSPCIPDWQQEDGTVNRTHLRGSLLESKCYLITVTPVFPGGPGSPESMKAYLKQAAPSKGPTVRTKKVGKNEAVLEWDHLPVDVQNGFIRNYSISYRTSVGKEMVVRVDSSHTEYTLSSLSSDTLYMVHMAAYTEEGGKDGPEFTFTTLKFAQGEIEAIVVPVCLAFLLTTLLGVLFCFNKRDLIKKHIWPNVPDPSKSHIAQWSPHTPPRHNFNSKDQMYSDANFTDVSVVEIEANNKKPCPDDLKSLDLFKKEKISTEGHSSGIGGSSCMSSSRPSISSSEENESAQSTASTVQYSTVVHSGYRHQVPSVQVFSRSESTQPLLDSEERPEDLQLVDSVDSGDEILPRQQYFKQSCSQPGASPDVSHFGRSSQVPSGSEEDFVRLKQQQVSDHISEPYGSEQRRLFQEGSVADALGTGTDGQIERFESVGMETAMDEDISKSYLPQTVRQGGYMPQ
Description: Rat (Sprague-Dawley wild-type) were injected with Complete Freund's Adjuvant (CFA) to induce systemic inflammatory response. Drug (805) was injected intraarticularly; multiple doses (A and B, N=3).

gp130 [4] = biological target: T3, gp130 (Homo sapiens, UniProt P40189); test: OSM-mediated activation of gp130 in adult human articular chondrocytes; format: cell-based; conditions: three independent donors
T3 construct: endogenous in cells; host or cells: adult human articular chondrocytes (three donors)
T3 sequence (P40189 23-918): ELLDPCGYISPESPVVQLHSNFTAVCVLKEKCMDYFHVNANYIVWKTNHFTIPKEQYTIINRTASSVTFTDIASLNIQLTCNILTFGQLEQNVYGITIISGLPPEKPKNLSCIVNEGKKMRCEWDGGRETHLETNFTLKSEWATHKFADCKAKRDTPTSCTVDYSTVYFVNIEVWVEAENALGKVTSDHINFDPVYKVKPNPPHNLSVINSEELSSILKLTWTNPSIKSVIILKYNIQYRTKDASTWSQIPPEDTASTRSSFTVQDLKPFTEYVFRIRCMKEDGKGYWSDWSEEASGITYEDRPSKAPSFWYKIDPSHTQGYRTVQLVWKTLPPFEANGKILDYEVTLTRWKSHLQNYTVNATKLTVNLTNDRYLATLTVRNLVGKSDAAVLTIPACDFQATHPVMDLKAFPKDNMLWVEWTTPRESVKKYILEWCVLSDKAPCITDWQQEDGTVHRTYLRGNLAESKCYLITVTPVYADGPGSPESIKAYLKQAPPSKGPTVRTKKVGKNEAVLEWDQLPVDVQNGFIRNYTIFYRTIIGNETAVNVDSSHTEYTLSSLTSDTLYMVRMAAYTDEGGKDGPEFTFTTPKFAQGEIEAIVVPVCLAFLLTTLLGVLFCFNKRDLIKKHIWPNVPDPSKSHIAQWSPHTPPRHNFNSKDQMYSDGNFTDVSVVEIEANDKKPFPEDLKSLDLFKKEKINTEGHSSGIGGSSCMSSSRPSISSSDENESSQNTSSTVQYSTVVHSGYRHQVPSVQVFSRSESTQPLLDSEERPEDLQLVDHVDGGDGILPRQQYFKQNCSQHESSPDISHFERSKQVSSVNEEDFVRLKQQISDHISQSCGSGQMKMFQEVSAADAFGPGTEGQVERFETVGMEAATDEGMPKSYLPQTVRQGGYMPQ
Description: 423F is the positive control drug. Adult human articular chondrocytes from three independent donors were used to generate the results.
Adult human articular chondrocytes from three independent donors were used to generate the results.
Adult human articular chondrocytes from three independent donors were used.

[5] = Survival of NZM.2328 female mice (lupus nephritis-like syndrome); format: in vivo; conditions: intraperitoneally twice weekly, 10 mg/kg
[6] = test system: pig articular cartilage explants; test: Matrix degradation assay, OSM-driven, pig articular cartilage explants; format: cell-based
Description: FIG. 22A-C show matrix degradation assays.
72 hour exposure to the drug and OSM. […] Effect is concentration dependent and increases with increase in drug concentration.
(§1) Firstly, RCGD 423 was a hit from a library; this made the depth of the discovery surrounding the technology less comprehensive. Additionally, the physical properties of RCGD 423 (solubility, potency, functional groups) could be improved. Significant gains in these areas could potentially result in a first-in-class injectable for the treatment of post-traumatic OA. Moreover, the potential risks associated with promoting MYC stabilization and proliferation in gp130^+ cells as well as large increases in active STAT3 protein was of concern. […] These compounds were then screened in adult pig articular chondrocytes and cartilage explants, seeking compounds that could inhibit the catabolic effects of OSM but not drive increases in MYC and pSTAT3 protein levels. […] Together, these preliminary data identify CX-011 (B8) as a highly anti-inflammatory, anti-catabolic alternative to RCGD 423, with increased “drug-like” properties and reduced potential molecular liabilities.

[7] = test system: adult pig articular chondrocytes; test: Proteins mediating pro-inflammatory signals with or without OSM; format: cell-based
Description: as §1

gp130 [8] = biological target: T2, gp130; test: Injection into rat knees, pSTAT3 and MYC levels; format: in vivo; conditions: co-injection with RCGD 423 into rat knees
Description: Based on this, it was hypothesized that RCGD 423 acts through gp130 by promoting stable homodimers in the absence of ligand. To confirm that RCGD 423 acts through gp130, the gp130 null cell line Ba/F3 cells was used. Ba/F3 cells were transfected with either full-length gp130 or a mutant gp130 lacking domain 2 (ΔD2), which contains the predicted binding site for RCGD 423 (FIG. 7). […] To verify the specificity of RCGD 423 in vivo, the compound was injected into rat knees in the presence of the small molecule gp130 inhibitor SC144 or a blocking antibody specific for domain 2 of gp130. […] The ability of RCGD 423 to act via inducing formation of gp130 homodimers was then examined by expressing tagged versions of gp130 in 293T cells. In this system, only homodimeric complexes can contain both tagged versions of gp130 (FIG. 9).

MMP13 and ADAMTS4 = test: OSM-induced MMP13 and ADAMTS4 levels; format: cell-based

Cc1ccc(-c2csc(NC(=O)c3ccccn3)n2)cc1 [B805]
synovial inflammation [1]: reduced synovial inflammation in rat joints | competition with OSMR for gp130 occupancy / OSMR-gp130 interaction (OSMR and gp130): disrupts the interaction between OSMR and gp130 in a concentration-dependent manner | cartilage degeneration [2]: reduces cartilage degeneration | OSM-mediated secretion of IL-6 (adult synovial cells): strongly inhibits | OSM-mediated secretion of TNF-α (adult synovial cells): strongly inhibits | activation of gp130 in sick animals (gp130 [3]): prolonged effect preventing activation gp130 in sick animals | inflammatory response in vivo (gp130 [3]; multiple doses, N=3): inhibits inflammatory response in vivo in a dose-dependent manner | OSM-mediated activation of downstream effector JAK2 (gp130 [4]): strongly inhibits | OSM-mediated activation of gp130 (gp130 [4]): inhibit OSM-mediated activation of gp130; also recorded: strongly inhibits OSM-mediated activation of gp130 | survival [5]: survive longer | breakdown of collagen and aggrecan (aggrecan-neo, collagen-neo epitopes) ([6]; driven by OSM): strongly prevent the breakdown of collagen and aggrecan; also recorded: prevents the breakdown of collagen and aggrecan | increase in catalytic enzymes / induction of proteolytic gene expression ([6]; driven by OSM): prevents | breakdown of collagen and aggrecan (aggrecan-neo, collagen-neo epitopes) ([6]; fresh pig cartilage explants, 72 hour exposure to drug and OSM): strongly prevents the breakdown of collagen and aggrecan | increases in proteins mediating pro-inflammatory signals ([7]; in the presence of OSM): strongly inhibits increases in these proteins in the presence of OSM | endogenous levels of proteins mediating pro-inflammatory signals ([7]; without OSM): little effect

O=C(NNc1nc2cc(F)ccc2n2cccc12)c1cnccn1 [SC144]
blockade of signaling downstream of RCGD 423 (gp130 [8]): completely inhibited signaling downstream of RCGD 423; also recorded: could be blocked by co-injection

B1: OSM: pro-inflammatory cytokine oncostatin M (protein, UniProt P13725 26-221, looked up)
Oncostatin-M: AAIGSCSKEYRVLLGQLQKQTDLMQDTSRLLDPYIRIQGLDVPKLREHCRERPGAFPSEETLRGLGRRGFLQTLNATLGCVLHRLADLEQRLPKAQDLERSGLNIEDLEKLQMARPNILGLRNNIYCMAQLLDNSDTAEPTKAGRGASQPPTPTPASDAFQRKLEGCRFLHGYHRFMHSVGRVFSKWGESPNRSRR
levels of MMP13 and ADAMTS4 (degradation of cartilage matrix proteins) (MMP13 and ADAMTS4): upregulates levels of MMP13 and ADAMTS proteases
